Assay results published in ChEMBL document CHEMBL1201862, “PubChem BioAssay data set” (2004).
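Interpolation was linear, between the two tested concentrations surrounding the appropriate level; five concentrations were tested over 48 hours in 96-well plates. The concentration for 50% growth inhibition is given as GI50.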 The source made the active and inactive calls. No stated cut-off is given here; in the data, active = GI50 up to about 1.1 µM and inactive = higher.

Tests used:
Assay in all cases: DTP human tumour cell line panel, 48 h
[1] = tested on: HCT-15
[2] = tested on: SNB-19
[3] = tested on: HOP-62
[4] = tested on: DMS-114
[5] = tested on: HOP-92
[6] = tested on: SNB-75
[7] = tested on: A549
[8] = tested on: DLD-1
[9] = tested on: RXF 393
[10] = tested on: UO-31
[11] = tested on: NCI-H460
[12] = tested on: Malme-3M
[13] = tested on: SK-OV-3
[14] = tested on: KM12
[15] = tested on: NCI-H522
[16] = tested on: K562
[17] = tested on: MOLT-4
[18] = tested on: SF-539
[19] = tested on: A498
[20] = tested on: HCT-116
[21] = tested on: UACC-257
[22] = tested on: SF-268
[23] = tested on: OVCAR-3
[24] = tested on: SK-MEL-28
[25] = tested on: CCRF-CEM
[26] = tested on: LOX IMVI
[27] = tested on: IGROV-1
[28] = tested on: SF-295
[29] = tested on: HT-29
[30] = tested on: UACC-62
[31] = tested on: DMS-273
[32] = tested on: NCI-H226
[33] = tested on: SW-620
[34] = tested on: OVCAR-8
[35] = tested on: EKVX
[36] = tested on: OVCAR-4
[37] = tested on: NCI/ADR-RES
[38] = tested on: COLO 205
[39] = tested on: CAKI-1
[40] = tested on: RPMI-8226
[41] = tested on: OVCAR-5
[42] = tested on: U-251
[43] = tested on: KM-20L2
[44] = tested on: NCI-H23
[45] = tested on: SN12C
[46] = tested on: HCC 2998
[47] = tested on: SNB-78
[48] = tested on: HL-60
[49] = tested on: XF498
[50] = tested on: MCF7
[51] = tested on: SK-MEL-2
[52] = tested on: SK-MEL-5
[53] = tested on: HOP-18
[54] = tested on: M19-MEL
[55] = tested on: M14
[56] = tested on: ACHN
[57] = tested on: TK-10
[58] = tested on: 786-0

Structure (SMILES): C=CCc1cccc(/C=N\N/C(N)=N/O)c1O
- GI50 [1]: 2190 nM
- GI50 [2]: 11.5 µM (inactive)
- GI50 [3]: 2.28 µM (inactive)
- GI50 [4]: 2.28 µM (inactive)
- GI50 [5]: 6.56 µM (inactive)
- GI50 [6]: 4.43 µM (inactive)
- GI50 [7]: 3.61 µM (inactive)
- GI50 [8]: 4.84 µM (inactive)
- GI50 [9]: 2.99 µM (inactive)
- GI50 [10]: 1.45 µM (inactive)
- GI50 [11]: 3.2 µM (inactive)
- GI50 [12]: 9.2 µM (inactive)
- GI50 [13]: 4.84 µM (inactive)
- GI50 [14]: 4.36 µM (inactive)
- GI50 [15]: 3.23 µM (inactive)
- GI50 [16]: 3.3 µM (inactive)
- GI50 [17]: 3.1 µM (inactive)
- GI50 [18]: 2.64 µM (inactive)
- GI50 [19]: 7.76 µM (inactive)
- GI50 [20]: 5.33 µM (inactive)
- GI50 [21]: 4.62 µM (inactive)
- GI50 [22]: 3.03 µM (inactive)
- GI50 [23]: 2.26 µM (inactive)
- GI50 [24]: 11.9 µM (inactive)
- GI50 [25]: 2.07 µM (inactive)
- GI50 [26]: 3.29 µM (inactive)
- GI50 [27]: 4.59 µM (inactive)
- GI50 [28]: 2.31 µM (inactive)
- GI50 [29]: 6.59 µM (inactive)
- GI50 [30]: 2.64 µM (inactive)
- GI50 [31]: 3.05 µM (inactive)
- GI50 [32]: 3.18 µM (inactive)
- GI50 [33]: 6.52 µM (inactive)
- GI50 [34]: 3.89 µM (inactive)
- GI50 [35]: 3.06 µM (inactive)
- GI50 [36]: 5.16 µM (inactive)
- GI50 [37]: 2.23 µM (inactive)
- GI50 [38]: 5.01 µM (inactive)
- GI50 [39]: 3.46 µM (inactive)
- GI50 [40]: 2.22 µM (inactive)
- GI50 [41]: 5.02 µM (inactive)
- GI50 [42]: 4.51 µM (inactive)
- GI50 [43]: 3.98 µM (inactive)
- GI50 [44]: 3.22 µM (inactive)
- GI50 [45]: 4.8 µM (inactive)
- GI50 [46]: 3.21 µM (inactive)
- GI50 [47]: 21.5 µM (inactive)
- GI50 [48]: 2.14 µM (inactive)
- GI50 [49]: 4.27 µM (inactive)
- GI50 [50]: 2.56 µM (inactive)
- GI50 [51]: 6.3 µM (inactive)
- GI50 [52]: 3.76 µM (inactive)
- GI50 [53]: 5.09 µM (inactive)

Structure (SMILES): Nc1nc(N)c(-c2ccccc2)c(C(=O)Nc2ccccc2)n1
- GI50 [1]: > 100000 nM
- GI50 [2]: > 100 µM (inactive)
- GI50 [5]: > 100 µM (inactive)
- GI50 [6]: > 100 µM (inactive)
- GI50 [54]: > 100 µM (inactive)
- GI50 [7]: > 100 µM (inactive)
- GI50 [55]: > 100 µM (inactive)
- GI50 [8]: > 100 µM (inactive)
- GI50 [9]: > 100 µM (inactive)
- GI50 [10]: > 100 µM (inactive)
- GI50 [11]: > 100 µM (inactive)
- GI50 [12]: > 100 µM (inactive)
- GI50 [13]: > 100 µM (inactive)
- GI50 [14]: > 100 µM (inactive)
- GI50 [15]: > 100 µM (inactive)
- GI50 [16]: > 100 µM (inactive)
- GI50 [17]: > 100 µM (inactive)
- GI50 [18]: > 100 µM (inactive)
- GI50 [56]: > 100 µM (inactive)
- GI50 [19]: > 100 µM (inactive)
- GI50 [20]: > 100 µM (inactive)
- GI50 [21]: > 100 µM (inactive)
- GI50 [22]: > 100 µM (inactive)
- GI50 [23]: > 100 µM (inactive)
- GI50 [24]: > 100 µM (inactive)
- GI50 [25]: > 100 µM (inactive)
- GI50 [26]: > 100 µM (inactive)
- GI50 [27]: > 100 µM (inactive)
- GI50 [57]: > 100 µM (inactive)
- GI50 [29]: > 100 µM (inactive)
- GI50 [30]: > 100 µM (inactive)
- GI50 [32]: > 100 µM (inactive)
- GI50 [33]: > 100 µM (inactive)
- GI50 [34]: > 100 µM (inactive)
- GI50 [35]: > 100 µM (inactive)
- GI50 [36]: > 100 µM (inactive)
- GI50 [38]: > 100 µM (inactive)
- GI50 [39]: > 100 µM (inactive)
- GI50 [58]: > 100 µM (inactive)
- GI50 [40]: > 100 µM (inactive)
- GI50 [41]: > 100 µM (inactive)
- GI50 [42]: > 100 µM (inactive)
- GI50 [43]: > 100 µM (inactive)
- GI50 [44]: > 100 µM (inactive)
- GI50 [45]: > 100 µM (inactive)
- GI50 [47]: > 100 µM (inactive)
- GI50 [49]: > 100 µM (inactive)
- GI50 [51]: > 100 µM (inactive)
- GI50 [52]: > 100 µM (inactive)
- GI50 [53]: > 100 µM (inactive)
